One data set concerns Pneumocystis carinii. As to the kind of experiment: Activity against Pneumocystis carinii: treatment of latent infection in dexamethasone-treated rats. Format: in vivo. As to conditions: weeks 5-7; for SCORE 2 (number of rats): 2+: focal areas of pneumonitis surrounded by 10 to 25 h.p.f. of normal lung; for SCORE 3 (number of rats): 3+: lung diffusely and extensively involved; for SCORE 4 (number of rats): score 4 not defined; for SCORE 0 (number of rats): score none: no organism seen; for SCORE 1 (number of rats): 1+: cysts sparsely distributed, less than one per 25 h.p.f. The protocol: Groups of 10 rats were treated with dexamethasone to allow latent Pneumocystis carinii infection to develop. Tetracycline was also administered to protect against bacterial infections. […] In parallel with each test compound, Celacol was administered to one group of rats (also treated with dexamethasone and tetracycline) as a control. At the end of the test period the animals were sacrificed and autopsies carried out. The lungs were removed and the right lung bisected. An imprint was made onto microscope slides and stained with toluidine blue. One half of the lung was placed in formalin, processed in paraffin blocks, sectioned and stained by the Gomori methanamine silver nitrate method. After autopsy the extent of P. carinii pneumonitis was scored under coded study as none if no organism seen; 1+ if P. carinii cysts seen sparsely distributed with less than one per 25 high power field (h.p.f.); 2+ if focal areas of P. carinii pneumonitis surrounded by 10 to 25 h.p.f. of normal lung and 3+ if lung diffusely and extensively involved with organisms in almost all h.p.f.s.

The next data set is described as follows: Water-solubility. Format: physicochemical. As to conditions: as compared with the corresponding compound wherein R13 is hydroxy.
For data set [1] the following is noted: human, in vivo; cited from earlier work.
For data set [2], the system named is Pneumocystis carinii pneumonia. The settings on record: AIDS patients; Wofsy, Antimicrobial Agents Annual 1986; cited from earlier work.

`CC(C)(C)C1CCC(CC2=C(O)C(=O)c3ccccc3C2=O)CC1` (stereo not shown) [C, 2-(4-t-butylcyclohexylmethyl)-3-hydroxy-1,4-naphthoquinone]: in the data set on Pneumocystis carinii (25 mg/kg/day oral), the “% INFECTED” value was found to be 93%, the “NO. INFECTED/NO. EXAMINED” value is on record as 13/14, the “SCORE 2 (number of rats)” value is listed as 2 and the “SCORE 3 (number of rats)” value amounted to 4. In the data set on Pneumocystis carinii (25 mg/kg/day oral), the “SCORE 4 (number of rats)” value came to 4 and the “SCORE 0 (number of rats)” value was found to be 1. Further, in the data set with Pneumocystis carinii (50 mg/kg/day oral), the “% INFECTED” value came out at 100%, the “NO. INFECTED/NO. EXAMINED” value is 14/14, the “SCORE 1 (number of rats)” value was 2 and the “SCORE 2 (number of rats)” value is on record as 6. Further, in the data set on Pneumocystis carinii (50 mg/kg/day oral), the “SCORE 3 (number of rats)” value came to 4, the “SCORE 4 (number of rats)” value is on record as 2 and the “SCORE 0 (number of rats)” value is on record as 0. In addition, in the data set on Pneumocystis carinii (100 mg/kg/day oral), the “% INFECTED” value is 92%, the “NO. INFECTED/NO. EXAMINED” value was 12/13, the “SCORE 1 (number of rats)” value turned out to be 4 and the “SCORE 2 (number of rats)” value turned out to be 2. In the data set on Pneumocystis carinii (100 mg/kg/day oral), the “SCORE 3 (number of rats)” value is 6, the “SCORE 4 (number of rats)” value is given as 0 and the “SCORE 0 (number of rats)” value is on record as 1. Further, the “SCORE 1 (number of rats)” value in the data set with Pneumocystis carinii (oral) was determined as 3.

With `CC(C)(C)C1CCC(C2=C(O)C(=O)c3ccccc3C2=O)CC1` (stereo not shown) [Compound B, 2-(4-t-butylcyclohexyl)-3-hydroxy-1,4-naphthoquinone], in the data set on Pneumocystis carinii (25 mg/kg/day oral), the “% INFECTED” value came out at 100%, the “NO. INFECTED/NO. EXAMINED” value is listed as 15/15, the “SCORE 2 (number of rats)” value is 7 and the “SCORE 3 (number of rats)” value came out at 1. In addition, in the data set with Pneumocystis carinii (25 mg/kg/day oral), the “SCORE 4 (number of rats)” value stood at 0 and the “SCORE 0 (number of rats)” value is 0. In addition, in the data set with Pneumocystis carinii (50 mg/kg/day oral), the “% INFECTED” value is listed as 93%, the “NO. INFECTED/NO. EXAMINED” value is listed as 13/14, the “SCORE 1 (number of rats)” value is recorded as 8 and the “SCORE 2 (number of rats)” value stood at 4. In the data set on Pneumocystis carinii (50 mg/kg/day oral), the “SCORE 3 (number of rats)” value was determined as 1, the “SCORE 4 (number of rats)” value turned out to be 0 and the “SCORE 0 (number of rats)” value worked out at 1. In addition, in the data set with Pneumocystis carinii (100 mg/kg/day oral), the “% INFECTED” value was determined as 80%, the “NO. INFECTED/NO. EXAMINED” value is on record as 12/15, the “SCORE 1 (number of rats)” value came to 8 and the “SCORE 2 (number of rats)” value came out at 3. Moreover, in the data set with Pneumocystis carinii (100 mg/kg/day oral), the “SCORE 3 (number of rats)” value is given as 0, the “SCORE 4 (number of rats)” value was 1 and the “SCORE 0 (number of rats)” value is given as 3. Moreover, in the data set on Pneumocystis carinii (oral), the “SCORE 1 (number of rats)” value is given as 7.

For `CC(=O)OC1=C([C@H]2CC[C@H](c3ccc(Cl)cc3)CC2)C(=O)c2ccccc2C1=O` [Example 5, 2-Acetoxy-3-[trans-4-(4-chlorophenyl)cyclohexyl]-1,4-naphthoquinone], the water-solubility entry in “Water-solubility” is recorded as “improved water-solubility”.

In the case of `N=C(N)c1ccc(OCCCCCOc2ccc(C(=N)N)cc2)cc1` [pentamidine], the “incidence of adverse reactions” value in data set [1] is given as “around 50%”. The “% effective” value in data set [2] is recorded as 50-70%.

Consider `O=C1C(Cl)=C(C2CCC(c3ccc(Cl)cc3)CC2)C(=O)c2ccccc21` (stereo not shown) [A, 2-[4-(4-chlorophenyl)cyclohexyl]-3-chloro-1,4-naphthoquinone], for which, in the data set with Pneumocystis carinii (25 mg/kg/day oral), the “% INFECTED” value came out at 100%, the “NO. INFECTED/NO. EXAMINED” value was 14/14, the “SCORE 2 (number of rats)” value was found to be 6 and the “SCORE 3 (number of rats)” value turned out to be 3. In the data set with Pneumocystis carinii (25 mg/kg/day oral), the “SCORE 4 (number of rats)” value was determined as 0 and the “SCORE 0 (number of rats)” value is recorded as 0. For the same compound, in the data set with Pneumocystis carinii (50 mg/kg/day oral), the “% INFECTED” value came to 100%, the “NO. INFECTED/NO. EXAMINED” value is 15/15, the “SCORE 1 (number of rats)” value was 8 and the “SCORE 2 (number of rats)” value is reported as 5. In the data set on Pneumocystis carinii (50 mg/kg/day oral), the “SCORE 3 (number of rats)” value is on record as 2, the “SCORE 4 (number of rats)” value turned out to be 0 and the “SCORE 0 (number of rats)” value was 0. In the data set on Pneumocystis carinii (100 mg/kg/day oral), the “% INFECTED” value stood at 73%, the “NO. INFECTED/NO. EXAMINED” value is listed as 11/15, the “SCORE 1 (number of rats)” value amounted to 6 and the “SCORE 2 (number of rats)” value was 4. In the data set on Pneumocystis carinii (100 mg/kg/day oral), the “SCORE 3 (number of rats)” value was determined as 1, the “SCORE 4 (number of rats)” value amounted to 0 and the “SCORE 0 (number of rats)” value worked out at 4. For the same compound, the “SCORE 1 (number of rats)” value with Pneumocystis carinii (oral) is 5.

On to trimethoprim-sulphamethoxazole, for which the “% effective” value in data set [2] is 50-70%.

These data come from US5310762A, “Medicaments” (Burroughs Wellcome Co., priority 1988, dated 1994).
